Test results published in the NIST ThermoML archive (doi:10.1021/je900600c).

Assays:
[1] = 101 kPa, Liquid; for electrical conductivity: Frequency=0.0005 MHz, crison conductivimeter
[2] = xn = mol fraction of the nth substance listed; settings: 101 kPa, Liquid; for electrical conductivity: Frequency=0.0005 MHz, crison conductivimeter

CCCCn1cc[n+](C)c1.F[B-](F)(F)F [1-butyl-3-methylimidazolium tetrafluoroborate]
[1]
Settings | electrical conductivity [S/m] | viscosity [mPa·s]
288.15 K | – | 173.5
298.15 K | 0.352 | 99.2
308.15 K | – | 61.3
318.15 K | – | 40.4

CCn1cc[n+](C)c1.F[B-](F)(F)F [1-ethyl-3-methylimidazolium tetrafluoroborate]
[1]
Settings | electrical conductivity [S/m] | viscosity [mPa·s]
288.15 K | – | 55.5
298.15 K | 1.63 | 36.9
308.15 K | – | 26
318.15 K | – | 19.17

CCn1cc[n+](C)c1.F[B-](F)(F)F [1-ethyl-3-methylimidazolium tetrafluoroborate] + O
[2]
Settings | electrical conductivity [S/m] | viscosity [mPa·s]
288.15 K, x2 = 0 | – | 55.5
288.15 K, x2 = 0.0985 | – | 36.2
288.15 K, x2 = 0.2191 | – | 23.88
288.15 K, x2 = 0.3053 | – | 18.26
288.15 K, x2 = 0.3982 | – | 13.26
288.15 K, x2 = 0.4916 | – | 10.29
288.15 K, x2 = 0.4933 | 4 | –
288.15 K, x2 = 0.5989 | – | 7.28
288.15 K, x2 = 0.6991 | – | 5.43
288.15 K, x2 = 0.8029 | – | 3.18
288.15 K, x2 = 0.8991 | – | 2.32
298.15 K, x2 = 0 | 1.63 | 36.9
298.15 K, x2 = 0.0985 | – | 25.2
298.15 K, x2 = 0.2191 | – | 16.66
298.15 K, x2 = 0.3053 | – | 13.51
298.15 K, x2 = 0.3665 | 4.1 | –
298.15 K, x2 = 0.3982 | – | 10.02
298.15 K, x2 = 0.4916 | – | 7.91
298.15 K, x2 = 0.4933 | 5.26 | –
298.15 K, x2 = 0.5498 | 6.07 | –
298.15 K, x2 = 0.5989 | – | 5.62
298.15 K, x2 = 0.6599 | 7.64 | –
298.15 K, x2 = 0.6991 | – | 4.23
298.15 K, x2 = 0.7332 | 8.15 | –
298.15 K, x2 = 0.7856 | 8.44 | –
298.15 K, x2 = 0.8029 | – | 2.5
298.15 K, x2 = 0.8249 | 8.52 | –
298.15 K, x2 = 0.8555 | 8.47 | –
298.15 K, x2 = 0.8799 | 8.36 | –
298.15 K, x2 = 0.8991 | – | 1.82
298.15 K, x2 = 0.8999 | 8.18 | –
298.15 K, x2 = 0.9166 | 7.9 | –
298.15 K, x2 = 0.9307 | 7.43 | –
298.15 K, x2 = 0.9428 | 7.1 | –
298.15 K, x2 = 0.9533 | 6.56 | –
298.15 K, x2 = 0.9625 | 6.13 | –
298.15 K, x2 = 0.9706 | 5.43 | –
298.15 K, x2 = 0.9778 | 4.76 | –
298.15 K, x2 = 0.9842 | 4.03 | –
298.15 K, x2 = 0.99 | 2.95 | –
298.15 K, x2 = 0.9952 | 1.79 | –
308.15 K, x2 = 0 | – | 26
308.15 K, x2 = 0.0985 | – | 18.45
308.15 K, x2 = 0.2191 | – | 12.64
308.15 K, x2 = 0.3053 | – | 10.39
308.15 K, x2 = 0.3982 | – | 7.85
308.15 K, x2 = 0.4916 | – | 6.26
308.15 K, x2 = 0.4933 | 5.9 | –
308.15 K, x2 = 0.5989 | – | 4.49
308.15 K, x2 = 0.6991 | – | 3.4
308.15 K, x2 = 0.8029 | – | 2.03
308.15 K, x2 = 0.8991 | – | 1.477
318.15 K, x2 = 0 | – | 19.17
318.15 K, x2 = 0.0985 | – | 14.01
318.15 K, x2 = 0.2191 | – | 9.9
318.15 K, x2 = 0.3053 | – | 8.23
318.15 K, x2 = 0.3982 | – | 6.33
318.15 K, x2 = 0.4916 | – | 5.09
318.15 K, x2 = 0.4933 | 6.95 | –
318.15 K, x2 = 0.5989 | – | 3.68
318.15 K, x2 = 0.6991 | – | 2.81
318.15 K, x2 = 0.8029 | – | 1.696
318.15 K, x2 = 0.8991 | – | 1.2

CCCCCCn1cc[n+](C)c1.F[B-](F)(F)F [1-hexyl-3-methylimidazolium tetrafluoroborate]
[1]
Settings | electrical conductivity [S/m] | viscosity [mPa·s]
288.15 K | – | 357.5
298.15 K | 0.126 | 190.9
308.15 K | – | 110.3
318.15 K | – | 68.5

CCCCCCn1cc[n+](C)c1.F[B-](F)(F)F [1-hexyl-3-methylimidazolium tetrafluoroborate] + O
[2]
Settings | electrical conductivity [S/m] | viscosity [mPa·s]
288.15 K, x2 = 0 | – | 357.5
288.15 K, x2 = 0.1101 | – | 200.6
288.15 K, x2 = 0.1679 | – | 151
288.15 K, x2 = 0.2812 | – | 100.3
288.15 K, x2 = 0.3581 | – | 65.4
288.15 K, x2 = 0.4907 | 0.625 | –
288.15 K, x2 = 0.4987 | – | 38.7
288.15 K, x2 = 0.5075 | – | 36.4
288.15 K, x2 = 0.573 | – | 29.4
288.15 K, x2 = 0.72 | – | 17.55
298.15 K, x2 = 0 | 0.126 | 190.9
298.15 K, x2 = 0.1101 | – | 113.9
298.15 K, x2 = 0.1164 | 0.202 | –
298.15 K, x2 = 0.1679 | – | 89.1
298.15 K, x2 = 0.2364 | 0.337 | –
298.15 K, x2 = 0.2812 | – | 61.6
298.15 K, x2 = 0.3232 | 0.484 | –
298.15 K, x2 = 0.3581 | – | 41.6
298.15 K, x2 = 0.3942 | 0.627 | –
298.15 K, x2 = 0.4548 | 0.798 | –
298.15 K, x2 = 0.4907 | 0.983 | –
298.15 K, x2 = 0.4987 | – | 25.5
298.15 K, x2 = 0.5075 | – | 24
298.15 K, x2 = 0.5294 | 1.06 | –
298.15 K, x2 = 0.573 | – | 19.6
298.15 K, x2 = 0.5896 | 1.31 | –
298.15 K, x2 = 0.652 | 1.62 | –
298.15 K, x2 = 0.7184 | 1.99 | –
298.15 K, x2 = 0.72 | – | 10.82
308.15 K, x2 = 0 | – | 110.3
308.15 K, x2 = 0.1101 | – | 69.4
308.15 K, x2 = 0.1679 | – | 56.2
308.15 K, x2 = 0.2812 | – | 40.3
308.15 K, x2 = 0.3581 | – | 28.1
308.15 K, x2 = 0.4907 | 1.38 | –
308.15 K, x2 = 0.4987 | – | 17.72
308.15 K, x2 = 0.5075 | – | 16.76
308.15 K, x2 = 0.573 | – | 13.83
308.15 K, x2 = 0.72 | – | 7.76
318.15 K, x2 = 0 | – | 68.5
318.15 K, x2 = 0.1101 | – | 45.1
318.15 K, x2 = 0.1679 | – | 37.5
318.15 K, x2 = 0.2812 | – | 27.8
318.15 K, x2 = 0.3581 | – | 19.89
318.15 K, x2 = 0.4907 | 1.65 | –
318.15 K, x2 = 0.4987 | – | 12.92
318.15 K, x2 = 0.5075 | – | 12.25
318.15 K, x2 = 0.573 | – | 10.19
318.15 K, x2 = 0.72 | – | 5.85

O [water]
[1]
Settings | viscosity [mPa·s]
288.15 K | 1.137
298.15 K | 0.89
308.15 K | 0.719
318.15 K | 0.597

O [water] + CCn1cc[n+](C)c1.F[B-](F)(F)F
[2], x1 = 1
Settings | viscosity [mPa·s]
288.15 K | 1.137
298.15 K | 0.89
308.15 K | 0.719
318.15 K | 0.597
